Measured values from patent US12690589B2, “Herbicidal compositions comprising pyroxasulfone” (BASF SE, priority 2024, dated 2026).
Where “and” joins values, the source holds several entries; their conditions need not be identical. Identical values can stand only once.

Legend:
Assay in all cases: Post-emergence application in field trials, herbicidal activity (damage scale 0 to 100%)
Assay type in all cases: in vivo
Ipomoea triloba (IPOTR) = details: height 20-25 cm, 21 DAT, Table 2.2
[1] = tested on: Commelina benghalensis (COMBE); details: 21 DAT
[2] = tested on: Digitaria horizontalis (DIGHO); details: growth stage 25, height 5-10 cm, 21 DAT, Table 2.6
[3] = tested on: Spermacoce latifolia (BOILF); details: 21 DAT, Table 2.5
[4] = tested on: Galinsoga parviflora (GASPA); details: height 15-35 cm, 21 DAT, Table 2.4
Eleusine indica (ELEIN) = tested on: Eleusine indica (ELEIN)
Bidens pilosa (BIDPI) = tested on: Bidens pilosa (BIDPI)
[5] = tested on: Brachiaria plantaginea (BRAPL); details: growth stage 21-25, height 10-15 cm, 20 DAT, Table 2.1
[6] = tested on: Portulaca oleracea (POROL); details: growth stage 14-16, height 5-10 cm, 20 DAT, Table 2.1
[7] = tested on: Euphorbia heterophylla (EPHHL); details: 21 DAT
[8] = tested on: Amaranthus retroflexus (AMARE)
Summary of the method: (§1)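 Field sites with natural or seeded weeds were sprayed post-emergence via flat fan nozzles in 200 l/ha water plus 0.25 v/v % MSO adjuvant, solo or mixed with pyroxasulfone and other partners. Damage was scored 0–100% versus untreated plants at indicated DAT. Colby expected values were used to judge synergy.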

Zea mays (ZEAMX) = tested on: Zea mays (ZEAMX)
Summary of the method: as §1

[9] = height 20-25 cm, B 120 g ai/ha, Table 2.2
[10] = 7 DAT, stage 31-49, height 10-12 cm, g ai/ha A-1 12.5, B 70, C-4 12.5
[11] = 21 DAT, stage 31-49, height 10-12 cm, g ai/ha A-1 18, B 70, C-12 252
[12] = 21 DAT, stage 31-49, height 10-12 cm, g ai/ha A-1 18, B 90, C-12 252
[13] = 42 DAT, stage 31-49, height 10-12 cm, g ai/ha A-1 12.5, B 70, C-4 12.5
[14] = 42 DAT, stage 31-49, height 10-12 cm, g ai/ha A-1 18, B 70
[15] = 42 DAT, stage 31-49, height 10-12 cm, g ai/ha A-1 18, B 70, C-4 12.5
[16] = 42 DAT, stage 31-49, height 10-12 cm, g ai/ha A-1 18, B 90, C-4 12.5
[17] = 7 DAT, stage 15-16, height 27-33 cm, g ai/ha A-1 12.5, B 70, C-12 252
[18] = 7 DAT, stage 15-16, height 27-33 cm, g ai/ha A-1 18, B 70, C-12 252
[19] = 7 DAT, stage 15-16, height 27-33 cm, g ai/ha A-1 18, B 90, C-4 12.5
[20] = 7 DAT, stage 15-16, height 27-33 cm, g ai/ha A-1 18, B 90, C-12 252
[21] = 21 DAT, stage 15-16, height 27-33 cm, g ai/ha A-1 12.5, B 70, C-12 252
[22] = 21 DAT, stage 15-16, height 27-33 cm, g ai/ha A-1 18, B 70, C-12 252
[23] = 21 DAT, stage 15-16, height 27-33 cm, g ai/ha A-1 18, B 90, C-12 252
[24] = 42 DAT, stage 15-16, height 27-33 cm, g ai/ha A-1 12.5, B 70, C-12 252
[25] = 42 DAT, stage 15-16, height 27-33 cm, g ai/ha A-1 18, B 70, C-12 252
[26] = 42 DAT, stage 15-16, height 27-33 cm, g ai/ha A-1 18, B 90, C-12 252
[27] = Table 8.1, 7 DAT, stage 15-16, height 50-60 cm, g ai/ha A-1 18, B 70, C-12 1066
[28] = Table 8.1, 7 DAT, stage 15-16, height 50-60 cm, g ai/ha A-1 18, B 90, C-12 1066
[29] = height 20-25 cm, A-1 25 g ai/ha, Table 2.2

Cn1nc(C(F)(F)F)c(CS(=O)(=O)C2=NOC(C)(C)C2)c1OC(F)F [B, pyroxasulfone]
% Herbicidal activity (Ipomoea triloba (IPOTR); B 120 g ai/ha): 0%
% Herbicidal activity ([1]; growth stage 11-14, height 2-10 cm, B 120 g ai/ha, Table 2.6): 10%
% Herbicidal activity [1, 9]: 0%
% Herbicidal activity ([2]; B 120 g ai/ha): 5%
% Herbicidal activity ([3]; B 120 g ai/ha): 5%
% Herbicidal activity ([4]; B 120 g ai/ha): 0%
% Herbicidal activity (Eleusine indica (ELEIN); growth stage 21-25, height 5-10 cm, B 120 g ai/ha, 20 DAT, Table 2.1): 0%
% Herbicidal activity (Eleusine indica (ELEIN); growth stage 23-25, height 3-5 cm, B 120 g ai/ha, 21 DAT, Table 2.6): 5%
% Herbicidal activity (Eleusine indica (ELEIN); height 20-25 cm, B 120 g ai/ha, 21 DAT, Table 2.3): 0%
% Herbicidal activity (Bidens pilosa (BIDPI); growth stage 12-16, height 5-10 cm, B 120 g ai/ha, 21 DAT, Table 2.6): 5%
% Herbicidal activity (Bidens pilosa (BIDPI); growth stage 23-25, height 10-20 cm, B 120 g ai/ha, 20 DAT, Table 2.1): 0%
% Herbicidal activity (Bidens pilosa (BIDPI); height 20-45 cm, B 120 g ai/ha, 21 DAT, Table 2.4): 0%
% Herbicidal activity ([5]; B 120 g ai/ha): 0%
% Herbicidal activity ([6]; B 120 g ai/ha): 0%
% Herbicidal activity ([7]; growth stage 12-16, height 5-15 cm, B 120 g ai/ha, Table 2.6): 5%
% Herbicidal activity ([7]; height 15-35 cm, B 120 g ai/ha, Table 2.4): 0%
% Herbicidal activity [7, 9]: 0%
% Herbicidal activity [8, 10]: 0%
% Herbicidal activity [8, 11]: 0%
% Herbicidal activity [8, 12]: 0%
% Herbicidal activity [8, 13]: 0%
% Herbicidal activity [8, 14]: 0%
% Herbicidal activity [8, 15]: 0%
% Herbicidal activity [8, 16]: 0%
% Herbicidal activity ([8]; AMARE, growth stage 31-49, height 10-12 cm, B 70 g ai/ha, 7 DAT, Table 4.1): 0%
% Herbicidal activity ([8]; AMARE, growth stage 31-49, height 10-12 cm, B 70 g ai/ha, 21 DAT, Table 4.3): 0%
% Herbicidal activity ([8]; AMARE, growth stage 31-49, height 10-12 cm, B 90 g ai/ha, 7 DAT, Table 4.1): 0%
% Herbicidal activity ([8]; AMARE, growth stage 31-49, height 10-12 cm, B 90 g ai/ha, 21 DAT, Table 4.3): 0%
% Herbicidal activity (Zea mays (ZEAMX); [17]): 0%
% Herbicidal activity (Zea mays (ZEAMX); [18]): 0%
% Herbicidal activity (Zea mays (ZEAMX); [19]): 0%
% Herbicidal activity (Zea mays (ZEAMX); [20]): 0%
% Herbicidal activity (Zea mays (ZEAMX); [21]): 0%
% Herbicidal activity (Zea mays (ZEAMX); [22]): 0%
% Herbicidal activity (Zea mays (ZEAMX); [23]): 0%
% Herbicidal activity (Zea mays (ZEAMX); [24]): 0%
% Herbicidal activity (Zea mays (ZEAMX); [25]): 0%
% Herbicidal activity (Zea mays (ZEAMX); [26]): 0%
% Herbicidal activity (Zea mays (ZEAMX); [27]): 5%
% Herbicidal activity (Zea mays (ZEAMX); [28]): 5%
% Herbicidal activity (Zea mays (ZEAMX); ZEAMX, growth stage 15-16, height 40-60 cm, B 70 g ai/ha, 7 DAT, Table 4.2): 5%
% Herbicidal activity (Zea mays (ZEAMX); ZEAMX, growth stage 15-16, height 40-60 cm, B 70 g ai/ha, 21 DAT, Table 4.4): 3%
% Herbicidal activity (Zea mays (ZEAMX); ZEAMX, growth stage 15-16, height 40-60 cm, B 90 g ai/ha, 7 DAT, Table 4.2): 5%

CP(=O)(O)CC[C@H](N)C(=O)O.N [C-12, glufosinate-P-ammonium]
% Herbicidal activity [8, 11]: 90%
% Herbicidal activity [8, 12]: 90%
% Herbicidal activity (Zea mays (ZEAMX); [17]): 70%
% Herbicidal activity (Zea mays (ZEAMX); [18]): 70%
% Herbicidal activity (Zea mays (ZEAMX); [20]): 70%
% Herbicidal activity (Zea mays (ZEAMX); [21]): 60%
% Herbicidal activity (Zea mays (ZEAMX); [22]): 60%
% Herbicidal activity (Zea mays (ZEAMX); [23]): 60%
% Herbicidal activity (Zea mays (ZEAMX); [24]): 45%
% Herbicidal activity (Zea mays (ZEAMX); [25]): 45%
% Herbicidal activity (Zea mays (ZEAMX); [26]): 45%
% Herbicidal activity (Zea mays (ZEAMX); [27]): 7%
% Herbicidal activity (Zea mays (ZEAMX); [28]): 7%

CCOC(=O)COc1ccccc1Oc1nc(-n2c(=O)cc(C(F)(F)F)n(C)c2=O)c(F)cc1Cl [A-1, ethyl 2-[2-[[3-chloro-5-fluoro-6-[3-methyl-2,6-dioxo-4-(trifluoromethyl)pyrimidin-1-yl]-2-pyridyl]oxy]phenoxy]acetate]
% Herbicidal activity (Ipomoea triloba (IPOTR); A-1 25 g ai/ha): 88%
% Herbicidal activity ([1]; growth stage 11-14, height 2-10 cm, A-1 50 g ai/ha, Table 2.6): 94%
% Herbicidal activity [1, 29]: 42%
% Herbicidal activity ([2]; A-1 50 g ai/ha): 92%
% Herbicidal activity ([3]; A-1 25 g ai/ha): 94%
% Herbicidal activity ([3]; A-1 50 g ai/ha): 97%
% Herbicidal activity ([4]; A-1 25 g ai/ha): 82%
% Herbicidal activity ([4]; A-1 50 g ai/ha): 94%
% Herbicidal activity (Eleusine indica (ELEIN); growth stage 21-25, height 5-10 cm, A-1 25 g ai/ha, 20 DAT, Table 2.1): 53%
% Herbicidal activity (Eleusine indica (ELEIN); growth stage 21-25, height 5-10 cm, A-1 50 g ai/ha, 20 DAT, Table 2.1): 59%
% Herbicidal activity (Eleusine indica (ELEIN); growth stage 23-25, height 3-5 cm, A-1 25 g ai/ha, 21 DAT, Table 2.6): 94%
% Herbicidal activity (Eleusine indica (ELEIN); growth stage 23-25, height 3-5 cm, A-1 50 g ai/ha, 21 DAT, Table 2.6): 95%
% Herbicidal activity (Eleusine indica (ELEIN); height 20-25 cm, A-1 25 g ai/ha, 21 DAT, Table 2.3): 52%
% Herbicidal activity (Bidens pilosa (BIDPI); growth stage 12-16, height 5-10 cm, A-1 25 g ai/ha, 21 DAT, Table 2.6): 94%
% Herbicidal activity (Bidens pilosa (BIDPI); growth stage 23-25, height 10-20 cm, A-1 25 g ai/ha, 20 DAT, Table 2.1): 71%
% Herbicidal activity (Bidens pilosa (BIDPI); growth stage 23-25, height 10-20 cm, A-1 50 g ai/ha, 20 DAT, Table 2.1): 77%
% Herbicidal activity (Bidens pilosa (BIDPI); height 20-45 cm, A-1 50 g ai/ha, 21 DAT, Table 2.4): 92%
% Herbicidal activity ([5]; A-1 25 g ai/ha): 49%
% Herbicidal activity ([6]; A-1 50 g ai/ha): 60%
% Herbicidal activity ([7]; growth stage 12-16, height 5-15 cm, A-1 25 g ai/ha, Table 2.6): 97%
% Herbicidal activity ([7]; growth stage 12-16, height 5-15 cm, A-1 50 g ai/ha, Table 2.6): 98%
% Herbicidal activity ([7]; height 15-35 cm, A-1 50 g ai/ha, Table 2.4): 95%
% Herbicidal activity [7, 29]: 86%
% Herbicidal activity [8, 10]: 80%
% Herbicidal activity [8, 11]: 80%
% Herbicidal activity [8, 12]: 80%
% Herbicidal activity [8, 13]: 80%
% Herbicidal activity [8, 14]: 90%
% Herbicidal activity [8, 15]: 85%
% Herbicidal activity [8, 16]: 85%
% Herbicidal activity ([8]; AMARE, growth stage 31-49, height 10-12 cm, A-1 12.5 g ai/ha, 7 DAT, Table 4.1): 80%
% Herbicidal activity ([8]; AMARE, growth stage 31-49, height 10-12 cm, A-1 12.5 g ai/ha, 21 DAT, Table 4.3): 90%
% Herbicidal activity ([8]; AMARE, growth stage 31-49, height 10-12 cm, A-1 18 g ai/ha, 7 DAT, Table 4.1): 80% and 93%
% Herbicidal activity ([8]; AMARE, growth stage 31-49, height 10-12 cm, A-1 18 g ai/ha, 21 DAT, Table 4.3): 80% and 92%
% Herbicidal activity (Zea mays (ZEAMX); [17]): 40%
% Herbicidal activity (Zea mays (ZEAMX); [18]): 40%
% Herbicidal activity (Zea mays (ZEAMX); [19]): 55%
% Herbicidal activity (Zea mays (ZEAMX); [20]): 40%
% Herbicidal activity (Zea mays (ZEAMX); [21]): 25%
% Herbicidal activity (Zea mays (ZEAMX); [22]): 30%
% Herbicidal activity (Zea mays (ZEAMX); [23]): 30%
% Herbicidal activity (Zea mays (ZEAMX); [24]): 15%
% Herbicidal activity (Zea mays (ZEAMX); [25]): 20%
% Herbicidal activity (Zea mays (ZEAMX); [26]): 20%
% Herbicidal activity (Zea mays (ZEAMX); [27]): 85%
% Herbicidal activity (Zea mays (ZEAMX); [28]): 85%
% Herbicidal activity (Zea mays (ZEAMX); ZEAMX, growth stage 15-16, height 40-60 cm, A-1 18 g ai/ha, 7 DAT, Table 4.2): 85%
% Herbicidal activity (Zea mays (ZEAMX); ZEAMX, growth stage 15-16, height 40-60 cm, A-1 18 g ai/ha, 21 DAT, Table 4.4): 80%
